Laboratory results published in the NIST ThermoML archive (doi:10.1016/j.jct.2006.07.021).
Several values for one entry are separate records, joined by “and”; a condition that tells them apart may be missing. Equal entries are not always repeated.

Assay: xn = mol fraction of the nth substance listed
Settings: 101 kPa, Liquid, Pycnometric method

OCCO [1,2-ethanediol] + NC=O
x2 = 0
Settings	mass density [kg/m3]
293.15 K	1113.57
303.15 K	1106.51
313.15 K	1099.45

NC=O [formamide] + CCO
mass density [kg/m3]
Settings	293.15 K	298.15 K	303.15 K	308.15 K	313.15 K	318.15 K
x1 = 0.0698	807.47	803.3	799.14	794.94	790.75	786.59
x1 = 0.1412	826.72	822.6	818.49	814.41	810.28	806.17
x1 = 0.2032	844.13	840.06	835.99	831.94	827.87	823.84
x1 = 0.268	862.91	858.91	854.91	850.86	846.85	842.82
x1 = 0.3234	879.65	875.69	871.68	867.71	863.74	859.75
x1 = 0.3874	899.52	895.58	891.65	887.7	883.75	879.8
x1 = 0.4365	915.29	911.35	907.45	903.54	899.61	895.7
x1 = 0.4962	935.06	931.19	927.32	923.4	919.52	915.62
x1 = 0.5423	950.83	946.93	943.06	939.2	935.3	931.42
x1 = 0.5958	969.63	965.8	961.95	958.11	954.29	950.42
x1 = 0.6456	987.65	983.82	979.98	976.18	972.35	968.54
x1 = 0.708	1010.93	1007.05	1003.21	999.36	995.49	991.62
x1 = 0.7748	1036.9	1033.01	1029.13	1025.26	1021.35	1017.44
x1 = 0.8532	1068.57	1064.68	1060.75	1056.82	1052.93	1049.03
x1 = 0.9282	1100.66	1096.71	1092.76	1088.83	1084.87	1080.95
x1 = 1	1133	1129	1125	1121	1117	1113

CC(O)CO (centres undefined) [1,2-propanediol] + NC=O
x2 = 0
Settings	mass density [kg/m3]
293.15 K	1036.38
298.15 K	1032.76
303.15 K	1029.14
308.15 K	1025.52
313.15 K	1021.9
318.15 K	1018.28

CCO [ethanol] + NC=O
x2 = 0
Settings	mass density [kg/m3]
293.15 K	789.46
298.15 K	785.2
303.15 K	780.75
308.15 K	776.42
313.15 K	771.81
318.15 K	767.38

CCCO [propan-1-ol] + NC=O
x2 = 0
Settings	mass density [kg/m3]
293.15 K	803.71
298.15 K	799.74
303.15 K	795.77
308.15 K	791.8
313.15 K	787.83
318.15 K	783.86

NC=O [formamide] + OCCO
mass density [kg/m3]
Settings	293.15 K	298.15 K	303.15 K	308.15 K	313.15 K	318.15 K
x1 = 0.0612	1114.13	1110.54	1106.94	1103.38	1099.81	1096.21
x1 = 0.1204	1114.54	1110.93	1107.31	1103.66	1100.06	1096.44
x1 = 0.1859	1115.04	1111.39	1107.74	1104.07	1100.42	1096.73
x1 = 0.2524	1115.55	1111.84	1108.13	1104.47	1100.77	1097.09
x1 = 0.3302	1116.11	1112.36	1108.66	1104.92	1101.18	1097.46
x1 = 0.3926	1116.61	1112.86	1109.1	1105.36	1101.62	1097.88
x1 = 0.4517	1117.2	1113.44	1109.64	1105.85	1102.08	1098.29
x1 = 0.5102	1117.85	1114.01	1110.17	1106.38	1102.55	1098.74
x1 = 0.5643	1118.48	1114.66	1110.81	1106.95	1103.13	1099.29
x1 = 0.6101	1119.18	1115.31	1111.46	1107.6	1103.72	1099.89
x1 = 0.6596	1120.09	1116.22	1112.36	1108.46	1104.59	1100.7
x1 = 0.7454	1122.11	1118.19	1114.23	1110.28	1106.35	1102.42
x1 = 0.8195	1124.35	1120.37	1116.38	1112.38	1108.42	1104.46
x1 = 0.8883	1127.02	1122.99	1119	1115.01	1110.98	1106.96
x1 = 0.9491	1130.03	1125.99	1121.95	1117.89	1113.86	1109.79
x1 = 1	1133	1129	1125	1121	1117	1113

NC=O [formamide] + CCCO
mass density
Settings	293.15 K	298.15 K	303.15 K	308.15 K	313.15 K	318.15 K
x1 = 0.0557	814.02 kg/m3	810.06 kg/m3	806.09 kg/m3	802.16 kg/m3	798.22 kg/m3	794.25 kg/m3
x1 = 0.1172	826.05 kg/m3	822.13 kg/m3	818.2 kg/m3	814.24 kg/m3	810.33 kg/m3	806.4 kg/m3
x1 = 0.1854	840.26 kg/m3	836.35 kg/m3	832.44 kg/m3	828.51 kg/m3	824.6 kg/m3	820.65 kg/m3
x1 = 0.2615	857.42 kg/m3	853.48 kg/m3	849.54 kg/m3	845.65 kg/m3	841.72 kg/m3	837.81 kg/m3
x1 = 0.3469	878.23 kg/m3	874.3 kg/m3	870.42 kg/m3	866.5 kg/m3	862.58 kg/m3	858.68 kg/m3
x1 = 0.3912	889.89 kg/m3	885.98 kg/m3	882.06 kg/m3	878.16 kg/m3	874.26 kg/m3	870.36 kg/m3
x1 = 0.4434	904.36 kg/m3	900.47 kg/m3	896.54 kg/m3	892.62 kg/m3	888.72 kg/m3	884.8 kg/m3
x1 = 0.4986	920.67 kg/m3	916.75 kg/m3	912.83 kg/m3	908.96 kg/m3	905.05 kg/m3	901.16 kg/m3
x1 = 0.5534	937.91 kg/m3	934.03 kg/m3	930.12 kg/m3	926.2 kg/m3	922.32 kg/m3	918.42 kg/m3
x1 = 0.6216	961.03 kg/m3	957.12 kg/m3	953.23 kg/m3	949.33 kg/m3	945.41 kg/m3	941.54 kg/m3
x1 = 0.68	982.32 kg/m3	978.44 kg/m3	974.57 kg/m3	970.66 kg/m3	966.78 kg/m3	962.88 kg/m3
x1 = 0.7535	1011.59 kg/m3	1007.72 kg/m3	1003.81 kg/m3	999.91 kg/m3	996.03 kg/m3	992.15 kg/m3
x1 = 0.827	1043.7 kg/m3	1039.83 kg/m3	1035.95 kg/m3	1032.06 kg/m3	1028.21 kg/m3	1024.36 kg/m3
x1 = 0.8832	1070.44 kg/m3	1066.54 kg/m3	1062.68 kg/m3	1058.82 kg/m3	1054.92 kg/m3	1051.03 kg/m3
x1 = 0.9328	1095.56 kg/m3	1091.65 kg/m3	1087.74 kg/m3	1083.81 kg/m3	1079.91 kg/m3	1075.97 kg/m3
x1 = 1	–	1133 kg/m3 and 1129 kg/m3	1125 kg/m3	1121 kg/m3	1117 kg/m3	1113 kg/m3

NC=O [formamide] + CC(O)CO
mass density [kg/m3]
Settings	293.15 K	298.15 K	303.15 K	308.15 K	313.15 K	318.15 K
x1 = 0.0567	1038.29	1034.56	1030.82	1027.12	1023.41	1019.67
x1 = 0.1191	1040.52	1036.78	1033.03	1029.25	1025.52	1021.77
x1 = 0.1881	1043.47	1039.69	1035.91	1032.11	1028.33	1024.51
x1 = 0.2649	1047.35	1043.5	1039.65	1035.85	1032.01	1028.19
x1 = 0.3409	1051.67	1047.79	1043.96	1040.09	1036.22	1032.37
x1 = 0.3904	1054.79	1050.91	1047.02	1043.15	1039.28	1035.44
x1 = 0.4478	1058.92	1055.02	1051.08	1047.15	1043.24	1039.31
x1 = 0.4936	1062.42	1058.49	1054.56	1050.68	1046.76	1042.86
x1 = 0.5578	1068.01	1064.07	1060.1	1056.12	1052.18	1048.22
x1 = 0.6262	1074.52	1070.55	1066.6	1062.64	1058.66	1054.73
x1 = 0.6838	1080.96	1076.95	1072.95	1068.91	1064.9	1060.87
x1 = 0.7544	1089.83	1085.77	1081.67	1077.58	1073.51	1069.44
x1 = 0.8295	1100.75	1096.63	1092.5	1088.36	1084.26	1080.16
x1 = 0.8818	1109.7	1105.53	1101.4	1097.27	1093.1	1088.94
x1 = 0.9392	1120.57	1116.44	1112.31	1108.16	1104.04	1099.88
x1 = 1	1133	1129	1125	1121	1117	1113
